Results on six molecules are retold here after ChEMBL document CHEMBL1124537, “The importance of the orientation of the C9 substituent to cannabinoid activity” (J Med Chem, 1989).

Common to all, as to format: functional, organism-based
What all share (conditions): Cercopithecidae

The subject of assay [1] is Monkey. Put plainly: Compound was tested for activity in rhesus monkey behavioral test; Active.
Assay [2] has as its system Monkey. Briefly: Compound was tested for activity in rhesus monkey behavioral test; Minimal activity.
The test system of assay [3] is Monkey. Put plainly: Compound was tested for activity in rhesus monkey behavioral test; Inactive.

Active and inactive are the calls of the source. The calls are words filed in the database; no cut-off is given here.

Regarding `CCCCCc1cc(O)c2c(c1)OC(C)(C)[C@@H]1CC=C(C)C[C@@H]21`, the outcome in assay [1] was Active.
In the case of `CCCCCc1cc(O)c2c(c1)OC(C)(C)C1CC[C@H](C)CC21` (stereo partly specified), the outcome in assay [1] was Active.
Consider `CCCCCc1cc(O)c2c(c1)OC(C)(C)C1CC[C@@H](C)CC21` (stereo partly specified), for which the Activity entry in assay [2] is given as “Minimal activity”.
Take `CCCCCc1cc(O)c2c(c1)OC(C)(C)C1C=C[C@H](C)CC21` (stereo partly specified): the outcome in assay [3] was inactive.
Still for that read-out and setting: under `C=C1CCC2C(C1)c1c(O)cc(CCCCC)cc1OC2(C)C` (stereo unspecified) stands “inactive”.
Consider `CCCCCc1cc(O)c2c(c1)OC(C)(C)[C@@H]1CCC(C)=C[C@@H]21`, for which the result in assay [1] was Active.
